Results on eight compounds are retold here after patent publication US11028054B2, “1, 4, 6-trisubstituted-2-alkyl-1H-benzo[d]imidazole derivatives as dihydroorotate oxygenase inhibitors” (Merck Patent GmbH, priority 2017, dated 2021).

In one test the test system is Jurkat cells. The test is described as follows: Measurement of cell proliferation activity (Jurkat cell), XTT assay. The format is cell-based. Conditions: Homo sapiens, 72 hrs incubation, cell viability by XTT assay. An excerpt:
Measurement of Cell Proliferation Activity (Jurkat Cell)
Jurkat cells are an immortalized cell line of T lymphocyte cells, which are used to study acute T cell leukaemia, T cell signalling, and the expression of various chemokine receptors susceptible to viral entry, particularly HIV. Jurkat cells are also useful in science because of their ability to produce interleukin 2. Their primary use, however, is to determine the mechanism of differential susceptibility of cancers to drugs and radiation.
Jurkat cells are cultured in RPMI medium with 10% FBS, and seeded at a density of 100,000 cells per well in a 96 well plate. Compound is added at different concentrations (typically starting at 10 μM followed by half log dilutions for a total of 8-10 concentrations). Each concentration is tested in triplicate and DMSO concentration is kept constant at 0.25-0.5%. The cells are then incubated in a CO2 incubator at 37° C. for 72 hrs before determining cell viability using XTT assay. Cell viability is plotted as a function of concentration and EC50 is determined using GraphPad Prism software
• Roehm, N et al [1991] An improved colorimetric assay for cell proliferation and viability utilizing the tetrazolium salt XTT. J. Immunol. Methods 142:257-265. Reagents: Roswells park memorial institute's medium, (RPMI-1640 complete media) pH-7.4±0.2 (Sigma R6504). • Dimethyl sulfoxide (DMSO), spectroscopic grade purchased from Spectrochem, (cat no. 0704209, B. no.—3183650 MEM Cat. No. M0268, Sigma). Fetal Bovine Serum (Cat. No. F9665, Sigma Aldrich). XTT sodium salt (Sigma Cat. No. X4251). PMS (Sigma Cat. No. 68600). Preparation of Solutions/Reagents
RPMI media supplemented with antibiotics, 10% FBS, Sodium Pyruvate and NEA (non essential amino acids).
XTT—A freshly prepared solution of XTT is made in the growth medium, with a final concentration of 1 mg/ml.
PMS—Stock is prepared with 1×PBS at 0.383 mg/ml and stored in aliquots at −20° C. The XTT solution at 20 μl/ml was added just before use.
Test solution—Serially diluted DMSO solutions are further diluted with media to 2× the required concentration in well.
Culture Jurkat cells in T-25 flasks at a density of 0.2×10^6/ml 2-3 days before the day of experiment set up.
Centrifuge Jurkat T-cell suspension at 1200 rpm for 10 minutes and resuspend cells again in fresh RPMI medium with 10% FBS. Count the cells and dilute suspension to a density of 2×10^6 cells/ml. Seed 50 μL of this suspension in each well of a 96 well plate (100,000 cells per well). Keep the edges of the plate empty to avoid evaporation. […]
XTT assay: to each well, add 50 μL of 1 mg/ml XTT solution with 20 μl of PMS/mL. Read the plates after 2 hours at 465 nm using the spectrophotometer. XTT reading for media without cells is used as background reading. […]
A general note: Tetrazolium dyes change colour on reduction, which living cells bring about.

For test [1], the target named is T1, DHODH (Homo sapiens (Human), UniProt Q02127). The experiment in a line: Measurement of DHODH inhibitory enzyme activity (coupled DCIP reduction assay). In kind it is biochemical. The text has this: Measurement of DHODH Inhibitory Enzyme Activity (In Vitro Assays)
T1 sequence (Q02127 whole entry): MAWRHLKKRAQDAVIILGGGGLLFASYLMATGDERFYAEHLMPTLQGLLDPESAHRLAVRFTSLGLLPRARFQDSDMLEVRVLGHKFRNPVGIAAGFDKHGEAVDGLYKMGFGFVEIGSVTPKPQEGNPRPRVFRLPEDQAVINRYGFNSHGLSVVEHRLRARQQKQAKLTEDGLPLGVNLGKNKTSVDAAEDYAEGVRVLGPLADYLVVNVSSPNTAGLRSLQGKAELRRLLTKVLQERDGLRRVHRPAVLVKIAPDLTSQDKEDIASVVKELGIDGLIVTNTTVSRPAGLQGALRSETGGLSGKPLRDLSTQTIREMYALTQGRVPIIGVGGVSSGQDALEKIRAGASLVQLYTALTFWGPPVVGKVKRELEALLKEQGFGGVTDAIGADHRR
The DHODH activity assay is a coupled enzyme assay in which oxidation of DHO and subsequent reduction of ubiquinone are stoichiometrically equivalent to the reduction of DCIP ([…]). The reduction of DCIP is accompanied by a loss of absorbance at 610 nm.
Reagents used: L-Dihydroorotic acid, Sigma, D7128, 2,6-Dichloroindophenol sodium salt hydrate, sigma, D1878 Dimethyl sulfoxide (DMSO), spectroscopic grade purchased from Spectrochem, cat no. 0704209, B. no.—3183650 Decylubiquinone, Sigma, D7911.
Preparation of Solutions/Reagents:
Buffer Preparation: 50 mM tris HCl, 150 mM KCl, and pH 8.0, 0.8% triton.
L-Dihydroorotic acid stock solution of 20 mM in buffer.
2, 6-Dichloroindophenol Sodium salt hydrate stock solution of 20 mM in buffer.
Decylubiquinone stock solution of 20 mM in buffer.
5 μL of Dimethyl sulfoxide or a compound of formula (I) in DMSO solution was added to the wells of a 96 well plate. Compounds of formula (I) were measured at 10 μM.
Protein along with buffer was added, so that the total volume including the DMSO was 87 μL. Compound and protein were incubated for half an hour at room temperature after mixing. 5 μL of 20 mM solution of L-Dihydroorotic acid, 5 μL of 2 mM solution of Decylubiquinone and 3 μL of 2 mM solution of 2, 6-Dichloroindophenol sodium salt hydrate were added to the above solution (total assay volume 100 μL). The mixture was stirred for 2 min and absorbance was recorded at every 10 min at 610 nanometers.
Percent inhibition is calculated as follows 100*{(Abs610 for reaction containing compound)−(Abs610 for positive control) (Abs610 for no enzyme reaction)−(Abs610 for positive control) Reaction containing compound has compound, buffer, enzyme and substrates Positive control contains DMSO, buffer, enzyme and substrates No Enzyme reaction contains DMSO, buffer and substrates IC50 determination: A 2 mM DMSO stock solution of the selected 1, 4, 6-trisubstituted-2-alkyl-1H-benzo[d]imidazole derivatives of formula (I) of the present invention to be examined was prepared. Subsequent ⅓rd dilutions were made as follows:
5 μL of each stock of compound of formula (I) (solution indicated in column 4 of table) was used for each 100 μL assay. Therefore, 5 μL of the 2 mM stock provided 100 μL of 100 μM solution of compound of formula (I), when made up with buffer, protein and substrate. See also: Ulrich et al. (2001) Eur. J. Biochem. 268, 1861-1868.

Test [2] concerns the target T1, DHODH. To be noted: DHODH versus protein tyrosine kinase; cited from earlier work.

The EC50 is the concentration needed to bring the measured effect to its halfway point. Lower therefore signals an effect from little substance. Usually IC50 stands for the concentration needed to halve the response being measured. `COc1cccc(-c2ccc(-c3cc(C(=O)O)c4nc(C)[nH]c4c3)cc2)c1` [Example 10, 6-(3'-methoxy-[1,1'-biphenyl]-4-yl)-2-methyl-1H-benzo[d]imidazole-4-carboxylic acid]: the EC50 with Jurkat cells turned out to be 32 nM. The 50% inhibitory concentration (IC50) at DHODH [1] was in the range of 10 to 99 nM.
On to `C/C(O)=C(\C#N)C(=O)Nc1ccc(C(F)(F)F)cc1` [Teriflunomide], for which, at DHODH [2], the “fold greater inhibitor of DHODH than of protein tyrosine kinase” value is on record as 100-1,000 fold.
The compound `COc1ccccc1-c1ccc(-c2cc(C(=O)O)c3nc(C)[nH]c3c2)cc1` [Example 18, 6-(2'-methoxy-[1,1'-biphenyl]-4-yl)-2-methyl-1H-benzo[d]imidazole-4-carboxylic acid] had an EC50 in the test on Jurkat cells of 111 nM. This compound yielded a half-maximal inhibitory concentration (IC50) at DHODH [1] of 10 to 99 nM.
The like results for `Cc1nc2c(C(=O)O)cc(-c3ccc(-c4ccccc4)cc3)cc2[nH]1` [Example 1, 6-([1,1'-biphenyl]-4-yl)-2-methyl-1H-benzo[d]imidazole-4-carboxylic acid] were, in that order, 133 nM and 10 to 99 nM.
On DHODH [1], `Cc1nc2c(C(=O)O)cc(-c3ccc(-c4ccccc4CN4CCCC4)cc3)cc2[nH]1` [Example 46, 2-methyl-6-(2'-(pyrrolidin-1-ylmethyl)-[1,1'-biphenyl]-4-yl)-1H-benzo[d]imidazole-4-carboxylic acid.2,2,2-trifluoroacetic acid] gave a half-inhibitory concentration (IC50) of 1 to 9.9 nM.
Turning to `Cc1nc2c(C(=O)O)cc(-c3ccc(-c4cccc(CNC(C)(C)C)c4)cc3)cc2[nH]1` [Example 39, 6-(3'-((tert-butylamino)methyl)-[1,1'-biphenyl]-4-yl)-2-methyl-1H-benzo[d]imidazole-4-carboxylic acid.2,2,2-trifluoroacetic acid], the IC50 on DHODH [1] is 10 to 99 nM.
On to `Cc1nc2c(C(=O)O)cc(-c3c(F)c(F)c(-c4ccccc4CN4CCCCC4)c(F)c3F)cc2[nH]1` [Example 53, 2-methyl-6-(2,3,5,6-tetrafluoro-2'-(piperidin-1-ylmethyl)-[1,1'-biphenyl]-4-yl)-1H-benzo[d]imidazole-4-carboxylic acid.2,2,2-trifluoroacetic acid], for which the half-maximal inhibitory concentration (IC50) on DHODH [1] was in the range of 1 to 9.9 nM.
In the test with Jurkat cells, `Cc1nc2c(C(=O)O)cc(-c3ccc(-c4ccccc4F)cc3)cc2[nH]1` [Example 5, 6-(2'-fluoro-[1,1'-biphenyl]-4-yl)-2-methyl-1H-benzo[d]imidazole-4-carboxylic acid] displayed an EC50 of 49 nM. Also, the IC50 at DHODH [1] lay within 10 to 99 nM.
